Measured values published in patent US20090143285A1, “TARGET PROTEIN AND TARGET GENE FOR DRUG DISCOVERY AND SCREENING METHOD” (REVERSE PROTEOMICS RESEARCH INSTITUTE CO., LTD., priority 2005, published 2009).
Entries after “also recorded” stand apart in the source; their conditions may differ.

test system: FLJXXXXX-derived proteins; experiment: SEC/MS spin column interaction analysis of FLJXXXXX-derived proteins and various compounds (Tables 30-1 to 30-4); assay type: binding, human; settings: not given

Structure (SMILES)	FLJ No of the derived protein with which the compound was judged to exhibit a concentration-dependent interaction
CCCSc1ccc2nc(NC(=O)OC)[nH]c2c1 [albendazole]	FLJ35353

same assay, conditions: SEC spin column filtrate, spectral intensity increased with doses of compound and protein

Structure (SMILES)	FLJ No of the derived protein with which the compound was judged to exhibit a concentration-dependent interaction
Cl.Cl.OCCN1CCN(CCC=C2c3ccccc3Sc3ccc(C(F)(F)F)cc32)CC1 (mixture of isomers) [flupentixol]	FLJ37909
c1ccc2c(c1)CCCc1cc(NCCN3CCOCC3)nnc1-2 [SR-95639A]	FLJ36526
CC(=O)c1ccc2c(c1)N(CCCN(C)C)c1ccccc1S2 [acetopromazine]	FLJ36526
CC(CN(C)C)CN1c2ccccc2Sc2ccccc21 (centres unmarked) [alimemazine]	FLJ37909
NCC[C@H](O)C(=O)N[C@@H]1C[C@H](N)[C@@H](O[C@H]2O[C@H](CN)[C@@H](O)[C@H](O)[C@H]2O)[C@H](O)[C@H]1O[C@H]1O[C@H](CO)[C@@H](O)[C@H](N)[C@H]1O [amikacin]	FLJ37909
CCCCc1oc2ccccc2c1C(=O)c1cc(I)c(OCCN(CC)CC)c(I)c1 [amiodarone]	FLJ37909
O=c1cc(-c2ccc(O)cc2)oc2cc(O)cc(O)c12 [apigenin]	FLJ39553
CCC(C)C1O[C@]2(C=C[C@@H]1C)C[C@@H]1CC(C/C=C(\C)[C@@H](OC3C[C@H](OC)[C@@H](OC4C[C@H](OC)[C@@H](O)[C@H](C)O4)[C@H](C)O3)[C@@H](C)/C=C/C=C3\COC4[C@H](O)C(C)=CC(C(=O)O1)[C@]34O)O2 (some centres unmarked) [avermectin B1A]	FLJ39553
COc1c(O)cc2c(c1O)[C@@H]1O[C@H](CO)[C@@H](O)[C@H](O)[C@H]1OC2=O [bergenin]	FLJ39553
CCCCC[C@](C)(O)/C=C/[C@@H]1[C@@H](C/C=C\CCCC(=O)O)[C@@H](O)C[C@H]1O [carboprost]	FLJ39553
O=C(O)CCCc1ccc(N(CCCl)CCCl)cc1 [chlorambucil]	FLJ23466
[H]/N=C(\N/C(=N/[H])NCCCCCCNC(=N)NC(=N)Nc1ccc(Cl)cc1)Nc1ccc(Cl)cc1 [chlorhexidine]	FLJ37909
CN(C)CCCN1c2ccccc2Sc2ccc(Cl)cc21 [chlorpromazine]	FLJ35353
C=C[C@H]1C[N@@]2CC[C@H]1C[C@@H]2[C@@H](O)c1ccnc2ccccc12 [cinchonine]	FLJ39553
CN1C(=O)CC(=O)N(c2ccccc2)c2cc(Cl)ccc21 [clobazam]	FLJ35353
CC(C)/N=c1\cc2n(-c3ccc(Cl)cc3)c3ccccc3nc-2cc1Nc1ccc(Cl)cc1 [clofazimine]	FLJ35353
CCN(CC)CCOc1ccc(C(=C(Cl)c2ccccc2)c2ccccc2)cc1 [clomiphene]	FLJ37909
CN(C)[C@@H]1C(O)=C(C(N)=O)C(=O)[C@@]2(O)C(O)=C3C(=O)c4c(O)ccc(Cl)c4[C@@H](O)[C@H]3C[C@@H]12 [demeclocycline]	FLJ39553
CC(C)[C@@]1(NC(=O)[C@@H]2C[C@@H]3c4cccc5[nH]cc(c45)C[C@H]3N(C)C2)O[C@@]2(O)[C@@H]3CCCN3C(=O)[C@H](Cc3ccccc3)N2C1=O [dihydroergocristine]	FLJ37909
CN1C[C@H](C(=O)N[C@]2(C)O[C@@]3(O)[C@@H]4CCCN4C(=O)[C@H](Cc4ccccc4)N3C2=O)C[C@@H]2c3cccc4[nH]cc(c34)C[C@H]21 [dihydroergotamine]	FLJ37909
C[N+]1(C)CCC(=C(c2ccccc2)c2ccccc2)CC1 [diphemanil]	FLJ36526
Cc1c(N(C)CS(=O)(=O)[O-])c(=O)n(-c2ccccc2)n1C.[Na+] [dipyrone]	FLJ35353
O=c1[nH]c2ccccc2n1CCCN1CCC(n2c(=O)[nH]c3cc(Cl)ccc32)CC1 [domperidone]	FLJ20571
COc1cc2nc(N3CCN(C(=O)C4COc5ccccc5O4)CC3)nc(N)c2cc1OC (centres unmarked) [doxazosin]	FLJ37909
CC(=O)[C@H]1CC[C@H]2[C@@H]3C=CC4=CC(=O)CC[C@@]4(C)[C@@H]3CC[C@]12C [dydrogesterone]	FLJ35353
Cc1c2ccncc2c(C)c2c1[nH]c1ccccc12 [ellipticine]	FLJ35353
CC[C@H]1CN2CCc3cc(OC)c(OC)cc3[C@@H]2C[C@@H]1C[C@H]1NCCc2cc(OC)c(OC)cc21 [emetine]	FLJ37909
CCN1C(=O)NC(c2ccccc2)C1=O (centres unmarked) [ethotoin]	FLJ38531

Structure (SMILES)	FLJ No of the derived protein with which the compound was judged to exhibit a concentration-dependent interaction
CCOC(=O)C1N=C(c2ccccc2F)c2cc(Cl)ccc2NC1=O (centres unmarked) [ethyl loflazepate]	FLJ35353
COC(=O)Nc1nc2ccc(Sc3ccccc3)cc2[nH]1 [fenbendazole]	FLJ37909
CC1CCc2cc(F)cc3c(=O)c(C(=O)O)cn1c23 (centres unmarked) [flumequine]	FLJ38531
Fc1ccc(C(c2ccc(F)cc2)N2CCN(C/C=C/c3ccccc3)CC2)cc1 [flunarizine]	FLJ37909
Cc1cnc(C(=O)NCCc2ccc(S(=O)(=O)NC(=O)NC3CCCCC3)cc2)cn1 [glipizide]	FLJ35353
COc1ccc2c3c([nH]c2c1)C(C)=NCC3 [harmaline]	FLJ39553
O=C1CNC(=O)N1 [hydantoin]	FLJ35914
CC(=O)[C@@]1(O)CC[C@H]2[C@@H]3CCC4=CC(=O)CC[C@]4(C)[C@H]3CC[C@@]21C [hydroxyprogesterone]	FLJ37909
Cc1cccc(C)c1NC(=O)CN1CCN(CCCC(c2ccc(F)cc2)c2ccc(F)cc2)CC1 [lidoflazine]	FLJ37909
NCCCC[C@H](N[C@@H](CCc1ccccc1)C(=O)O)C(=O)N1CCC[C@H]1C(=O)O [lisinopril]	FLJ40760
NCc1ccc(S(N)(=O)=O)cc1 [mafenide]	FLJ21841
Cc1cccc(Nc2ccccc2C(=O)O)c1C [mefenamic acid]	FLJ35353
CN1CCCCC1CCN1c2ccccc2Sc2ccc([S+](C)[O-])cc21 (centres unmarked) [mesoridazine]	FLJ11211
CN1C[C@H](CNC(=O)OCc2ccccc2)C[C@@H]2c3cccc4c3c(cn4C)C[C@H]21 [metergoline]	FLJ37909
CN1CCCC(CC2c3ccccc3Sc3ccccc32)C1 (centres unmarked) [methixene]	FLJ35353
COc1ccc2[nH]c3c(c2c1)CCN=C3C [methoxy-6-harmalan]	FLJ39553
Cc1cc(C(C)(C)CC(C)(C)C)ccc1OCCOCC[N+](C)(C)Cc1ccccc1.[Cl-] [methylbenzethonium chloride]	FLJ20571; also recorded: FLJ35353
Cc1cc2c(cc1S(N)(=O)=O)S(=O)(=O)CCC2 [meticrane]	FLJ39553
CC#C[C@]1(O)CC[C@H]2[C@@H]3CCC4=CC(=O)CCC4=C3[C@@H](c3ccc(N(C)C)cc3)C[C@@]21C [mifepristone]	FLJ22317
CCOc1ccc2ccccc2c1C(=O)N[C@@H]1C(=O)N2[C@@H]1SC(C)(C)[C@@H]2C(=O)O [nafcillin]	FLJ39553
CC1CCCC(C)N1 (stereo not drawn) [nanofin (cis), nanofin]	FLJ42665
O=C1CN=C(c2ccccc2)c2cc(Cl)ccc2N1 [nordiazepam]	FLJ35353
CN(C(=O)CN(CCO)CC(=O)N(C)C(C)(C)Cc1ccccc1)C(C)(C)Cc1ccccc1 [oxethazaine]	FLJ37909
CCn1cc(C(=O)O)c(=O)c2cc3c(cc21)OCO3 [oxolinic acid]	FLJ37909
CC(=O)O[C@H]1C(=O)[C@@]2(C)[C@H]([C@H](OC(=O)c3ccccc3)[C@]3(O)C[C@H](OC(=O)[C@H](O)[C@@H](NC(=O)c4ccccc4)c4ccccc4)C(C)=C1C3(C)C)[C@]1(OC(C)=O)CO[C@@H]1C[C@@H]2O [paclitaxel]	FLJ39553
COc1cc2c(cc1OC)-c1cc3ccc(OC)c(OC)c3c[n+]1CC2 [palmatine]	FLJ39553
C[C@@H]1C[C@H]2[C@@H]3C[C@H](F)C4=CC(=O)C=C[C@]4(C)[C@H]3[C@@H](O)C[C@]2(C)[C@@]1(O)C(=O)CO [paramethasone]	FLJ39553
